These results are taken from US8551999B2, “Heterocyclic compound and pharmaceutical composition thereof” (Otsuka Pharmaceutical Co., Ltd., priority 2007, dated 2013).

For orientation: melting point means the temperature, or range, at which the solid turns liquid.

As for `Br.CCc1ccc(CN2CCN(C(=O)c3cc4cc(Oc5ccc(NC(=O)c6ccc(C(F)(F)F)cc6)cn5)ccc4n3C)CC2)cc1` [Example 390, N-(6-{2-[4-(4-Ethylbenzyl)piperazine-1-carbonyl]-1-methyl-1H-indol-5-yloxy}pyridin-3-yl)-4-trifluoromethylbenzamide hydrobromide], the melting point was 239 to 241 °C. Next, `Cc1c(Oc2ccc(N(C)C(=O)c3ccc(C(F)(F)F)cc3)cn2)ccc2c1cc(C(=O)N1CCN(Cc3ccc4c(c3)OC(F)(F)O4)CC1)n2C` [Example 441, N-(6-{2-[4-(2,2-Difluorobenzo[1,3]dioxol-5-ylmethyl)piperazine-1-carbonyl]-1,4-dimethyl-1H-indol-5-yloxy}pyridin-3-yl)-N-methyl-4-trifluoromethylbenzamide]: 97.9 to 99.5 °C; `Cn1c(C(=O)N2CCN(C3CCOCC3)CC2)cc2cc(Oc3ccc(NS(=O)(=O)c4ccc(C(F)(F)F)cc4)cn3)ccc21` [Example 332, N-(6-{1-Methyl-2-[4-(tetrahydropyran-4-yl)piperazine-1-carbonyl]-1H-indol-5-yloxy}pyridin-3-yl)-4-trifluoromethylbenzene-sulfonamide]: 174 to 178 °C. Compound `Br.CN(C(=O)c1ccc(C(F)(F)F)cc1)c1ccc(Oc2ccc3cc(C(=O)N4CCN(Cc5ccc(OC(F)(F)C(F)F)cc5)CC4)n(C)c3c2)nc1` [Example 443, N-Methyl-N-[6-(1-methyl-2-{4-[4-(1,1,2,2-tetrafluoroethoxy)-benzyl]piperazine-1-carbonyl}-1H-indol-6-yloxy)pyridin-3-yl]-4-trifluoromethylbenzamide hydrobromide] showed a melting point of 245.4 to 247.6 °C.

Take `Br.CN(C(=O)c1ccc(Cl)c(Cl)c1)c1ccc(Oc2ccc3cc(C(=O)N4CCN(Cc5ccc(OCC(F)(F)F)cc5)CC4)n(C)c3c2)nc1` [Example 484, 3,4-Dichloro-N-methyl-N-[6-(1-methyl-2-{4-[4-(2,2,2-trifluoro-ethoxy)benzyl]piperazine-1-carbonyl}-1H-indol-6-yloxy)pyridin-3-yl]benzamide hydrobromide]: the melting point is 197.1 to 201.5 °C.

`Cn1c(C(=O)N2CCN(Cc3ccc4c(c3)OCO4)CC2)cc2cc(Oc3ccc(NC(=O)c4ccc(-n5cccc5)nc4)cn3)ccc21` [Example 225, N-{6-[2-(4-Benzo[1,3]dioxol-5-ylmethylpiperazine-1-carbonyl)-1-methyl-1H-indol-5-yloxy]pyridin-3-yl}-6-pyrrol-1-ylnicotinamide] displayed a melting point of 155 to 158 °C. The compound `COc1ccc(CN2CCN(C(=O)c3cc4cc(Oc5ccc(CNC(=O)c6ccc(C(F)(F)F)cn6)cn5)ccc4n3C)CC2)cc1.O=C(O)C(=O)O.O=C(O)C(=O)O` [Example 21, 5-Trifluoromethylpyridine-2-carboxylic acid (6-{2-[4-(4-methoxy-benzyl)piperazine-1-carbonyl]-1-methyl-1H-indol-5-yloxy}pyridin-3-yl)methylamide dioxalate] gave a melting point of 152 to 154 °C. The result for `Br.CN(C(=O)c1ccc(Cl)c(Cl)c1)c1ccc(Oc2ccc3cc(C(=O)N4CCN(Cc5ccc(OCCF)cc5)CC4)n(C)c3c2)nc1` [Example 482, 3,4-Dichloro-N-[6-(2-{4-[4-(2-fluoroethoxy)benzyl]piperazine-1-carbonyl}-1-methyl-1H-indol-6-yloxy)pyridin-3-yl]-N-methyl-benzamide hydrobromide] reads 186.9 to 188.8 °C.

Consider `Br.COc1ccc(CN2CCN(C(=O)c3cc4cc(Oc5ccc(NC(=O)c6ccc(C(F)(F)F)cc6Cl)cn5)ccc4n3C)CC2)cc1` [Example 231, 2-Chloro-N-(6-{2-[4-(4-methoxybenzyl)piperazine-1-carbonyl]-1-methyl-1H-indol-5-yloxy}pyridin-3-yl)-4-trifluoromethylbenzamide hydrobromide], for which the melting point lay within 239 to 241 °C. Next, `CCCCCCCCOc1ccc(CN2CCN(C(=O)c3cc4cc(Oc5ccc(N(C)C(=O)c6ccc(C(F)(F)F)cc6)cn5)ccc4n3C)CC2)cc1.O=C(O)/C=C\C(=O)O` [Example 414, N-Methyl-N-(6-{1-methyl-2-[4-(4-octyloxybenzyl)piperazine-1-carbonyl]-1H-indol-5-yloxy}pyridin-3-yl)-4-trifluoromethyl-benzamide maleate]: 125 to 126 °C; `Br.Cn1c(C(=O)N2CCN(Cc3ccc(OC(F)F)cc3)CC2)cc2ccc(Oc3ccc(NC(=O)c4ccc(Cl)c(Cl)c4)cn3)cc21` [Example 254, 3,4-Dichloro-N-(6-{2-[4-(4-difluoromethoxybenzyl)piperazine-1-carbonyl]-1-methyl-1H-indol-6-yloxy}pyridin-3-yl)benzamide hydrobromide]: 249 to 253.7 °C. Take `CC(C)Oc1ccc(CN2CCN(C(=O)c3cc4ccc(Oc5ncc(N(C)S(C)(=O)=O)cn5)cc4n3C)CC2)cc1` [Example 45, N-(2-{2-[4-(4-Isopropoxybenzyl)piperazine-1-carbonyl]-1-methyl-1H-indol-6-yloxy}pyrimidin-5-yl)-N-methylmethanesulfonamide]: the melting point fell in the range of 134.3 to 135.6 °C. Next, `C[C@@H]1CN(Cc2ccccn2)CCN1C(=O)c1cc2cc(Oc3ccc(NC(=O)c4ccc(C(F)(F)F)cc4)cn3)ccc2n1C.O=C(O)C(=O)O.O=C(O)C(=O)O` [Example 392, N-{6-[1-Methyl-2-((R)-2-methyl-4-pyridin-2-ylmethylpiperazine-1-carbonyl)-1H-indol-5-yloxy]pyridin-3-yl}-4-trifluoromethyl-benzamide dioxalate]: 128 to 130 °C. Regarding `Br.CN(C(=O)c1ccc(Cl)c(Cl)c1)c1ccc(Oc2ccc3cc(C(=O)N4CCN(Cc5ccc6c(c5)OC(F)(F)O6)CC4)n(C)c3c2)nc1` [Example 489, 3,4-Dichloro-N-(6-{2-[4-(2,2-difluorobenzo[1,3]dioxol-5-yl-methyl)piperazine-1-carbonyl]-1-methyl-1H-indol-6-yloxy}pyridin-3-yl)-N-methylbenzamide hydrobromide], the melting point was 225.4 to 227.1 °C. As for `Br.Br.Cc1cc(Oc2ccc3c(c2)cc(C(=O)N2CCN(Cc4ccncc4)CC2)n3C)ncc1NC(=O)c1ccc(C(F)(F)F)cc1` [Example 362, N-{4-Methyl-6-[1-methyl-2-(4-pyridin-4-ylmethylpiperazine-1-carbonyl)-1H-indol-5-yloxy]pyridin-3-yl}-4-trifluoromethyl-benzamide dihydrobromide], the melting point is 228 to 232 °C (dec.). The result for `Br.Cc1cc(CN2CCN(C(=O)c3cc4cc(Oc5ccc(NC(=O)c6ccc(C(F)(F)F)cc6)cn5)ccc4n3C)CC2)no1` [Example 569, N-(6-{1-Methyl-2-[4-(5-methylisoxazol-3-ylmethyl)piperazine-1-carbonyl]-1H-indol-5-yloxy}pyridin-3-yl)-4-trifluoromethyl-benzamide hydrobromide] reads 220 to 223 °C; that for `Br.Cn1c(C(=O)N2CCN(Cc3ccc4c(c3)OCO4)CC2)cc2cc(Oc3ccc(NC(=O)c4ccc(C(F)(F)F)cc4F)cn3)ccc21` [Example 316, N-{6-[2-(4-Benzo[1,3]dioxol-5-ylmethylpiperazine-1-carbonyl)-1-methyl-1H-indol-5-yloxy]pyridin-3-yl}-2-fluoro-4-trifluoromethyl-benzamide hydrobromide], 254 to 257 °C (dec.); that for `Br.CC(C)Oc1ccc(CN2CCN(C(=O)c3cc4ccc(Oc5ccc(NC(=O)c6ccc(C(F)(F)F)cc6)cn5)cc4n3C)CC2)cc1` [Example 476, N-(6-{2-[4-(4-Isopropoxybenzyl)piperazine-1-carbonyl]-1-methyl-1H-indol-6-yloxy}pyridin-3-yl)-4-trifluoromethylbenzamide hydrobromide], 258.7 to 259.6 °C. Next, `Br.Cn1c(C(=O)N2CCN(Cc3ccc4c(c3)OCO4)CC2)cc2ccc(Oc3ccc(NC(=O)c4ccc(C(F)(F)F)cc4)cn3)cc21` [Example 454, N-{6-[2-(4-Benzo[1,3]dioxol-5-ylmethylpiperazine-1-carbonyl)-1-methyl-1H-indol-6-yloxy]pyridin-3-yl}-4-trifluoromethylbenzamide hydrobromide]: 264 to 265.6 °C. The result for `Br.CN(C(=O)c1ccc(C(F)(F)F)cc1)c1ccc(Oc2ccc3cc(C(=O)N4CCN(Cc5ccc6c(c5)OC(F)(F)O6)CC4)n(C)c3c2)nc1` [Example 440, N-(6-{2-[4-(2,2-Difluorobenzo[1,3]dioxol-5-ylmethyl)piperazine-1-carbonyl]-1-methyl-1H-indol-6-yloxy}pyridin-3-yl)-N-methyl-4-tri-fluoromethylbenzamide hydrobromide] reads 243.3 to 245.1 °C; that for `Br.Cn1c(C(=O)N2CCN(Cc3ccc(OC(F)(F)C(F)F)cc3)CC2)cc2cc(Oc3ccc(NC(=O)c4ccc(C(F)(F)F)cc4)cn3)ccc21` [Example 402, N-[6-(1-Methyl-2-{4-[4-(1,1,2,2-tetrafluoroethoxy)benzyl]-piperazine-1-carbonyl}-1H-indol-5-yloxy)pyridin-3-yl]-4-tri-fluoromethylbenzamide hydrobromide], 255 to 257 °C. For `CN(C(=O)Nc1ccc(Cl)c(Cl)c1)c1ccc(Oc2ccc3c(c2)cc(C(=O)N2CCN(Cc4ccc5c(c4)OCO5)CC2)n3C)nc1.Cl`, the melting point lay in the range of 240 to 243 °C. In turn, `CC(C)CN1CCN(C(=O)c2cc3ccc(Oc4ccc(N(C)C(=O)c5ccc(C(F)(F)F)cc5)cn4)cc3n2C)CC1.Cl` returned a melting point of 253.1 to 254.5 °C.

Consider `Br.CCCOc1ccc(CN2CCN(C(=O)c3cc4cc(Oc5ccc(NC(=O)c6ccc(Cl)c(Cl)c6)cn5)ccc4n3C)CC2)cc1` [Example 369, 3,4-Dichloro-N-(6-{1-methyl-2-[4-(4-propoxybenzyl)piperazine-1-carbonyl]-1H-indol-5-yloxy}pyridin-3-yl)benzamide hydrobromide], for which the melting point is 249 to 252 °C (dec.).

Consider `Br.CCOc1cccc(CN2CCN(C(=O)c3cc4ccc(Oc5ccc(N(C)C(=O)c6ccc(C(F)(F)F)cc6)cn5)cc4n3C)CC2)c1` [Example 418, N-(6-{2-[4-(3-Ethoxybenzyl)piperazine-1-carbonyl]-1-methyl-1H-indol-6-yloxy}pyridin-3-yl)-N-methyl-4-trifluoromethylbenzamide hydrobromide], for which the melting point fell in the range of 234 to 236 °C.
